{"source": "paper PMC2922759", "about": "(European journal of pharmacology, 2009)", "key": {"[1]": {"molecular_target": "human KOP opioid receptor (Homo sapiens, UniProt P41145)", "sequence (P41145 whole entry)": "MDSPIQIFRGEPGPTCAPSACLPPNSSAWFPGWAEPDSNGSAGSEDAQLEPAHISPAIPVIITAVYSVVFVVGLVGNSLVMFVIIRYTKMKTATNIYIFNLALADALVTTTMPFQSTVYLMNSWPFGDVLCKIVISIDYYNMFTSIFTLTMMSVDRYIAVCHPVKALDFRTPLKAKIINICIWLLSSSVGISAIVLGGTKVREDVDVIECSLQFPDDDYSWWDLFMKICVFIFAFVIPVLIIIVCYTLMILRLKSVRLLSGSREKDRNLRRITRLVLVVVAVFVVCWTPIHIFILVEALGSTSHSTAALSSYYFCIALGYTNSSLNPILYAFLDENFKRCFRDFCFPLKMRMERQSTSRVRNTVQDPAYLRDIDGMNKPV", "assay": "Opioid receptor binding, [3H]diprenorphine", "conditions": "human KOP in CHO cell membranes, Mean±S.E.M."}, "[2]": {"molecular_target": "human DOP opioid receptor (Homo sapiens, UniProt P41143)", "sequence (P41143 whole entry)": "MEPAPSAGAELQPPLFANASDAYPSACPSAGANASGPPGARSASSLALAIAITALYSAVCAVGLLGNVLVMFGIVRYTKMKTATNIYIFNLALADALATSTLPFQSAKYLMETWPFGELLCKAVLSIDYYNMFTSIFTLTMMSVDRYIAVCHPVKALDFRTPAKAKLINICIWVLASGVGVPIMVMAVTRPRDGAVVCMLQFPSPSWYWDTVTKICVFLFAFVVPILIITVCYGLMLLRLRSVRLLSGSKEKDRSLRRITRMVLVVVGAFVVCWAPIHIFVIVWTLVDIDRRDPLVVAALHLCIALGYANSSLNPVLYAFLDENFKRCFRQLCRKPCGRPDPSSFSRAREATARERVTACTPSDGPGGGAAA", "assay": "Opioid receptor binding, [3H]diprenorphine", "conditions": "human DOP in CHO cell membranes, Mean±S.E.M."}, "Guinea pig NOP receptor": {"molecular_target": "Guinea pig NOP receptor (Cavia porcellus, UniProt P47748)", "sequence (P47748 whole entry)": "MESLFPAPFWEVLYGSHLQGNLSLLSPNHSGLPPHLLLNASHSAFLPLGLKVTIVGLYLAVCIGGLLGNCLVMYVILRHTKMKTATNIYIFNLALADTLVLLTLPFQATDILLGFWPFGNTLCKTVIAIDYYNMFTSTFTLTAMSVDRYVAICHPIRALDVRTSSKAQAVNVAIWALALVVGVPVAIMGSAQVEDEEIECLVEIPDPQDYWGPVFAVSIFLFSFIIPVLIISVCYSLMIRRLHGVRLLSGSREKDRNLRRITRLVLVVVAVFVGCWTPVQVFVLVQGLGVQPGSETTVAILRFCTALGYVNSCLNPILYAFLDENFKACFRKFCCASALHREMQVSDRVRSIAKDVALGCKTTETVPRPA", "assay": "NOP receptor binding, brain", "conditions": "guinea pig brain (cortex); Mean±S.E.M."}, "Cat NOP receptor": {"molecular_target": "Cat NOP receptor", "assay": "NOP receptor binding, brain", "conditions": "Mean±S.E.M."}, "Dog NOP receptor": {"molecular_target": "Dog NOP receptor", "assay": "NOP receptor binding, brain", "conditions": "Mean±S.E.M."}, "Rat NOP receptor": {"molecular_target": "Rat NOP receptor (Rattus norvegicus, UniProt P35370)", "sequence (P35370 whole entry)": "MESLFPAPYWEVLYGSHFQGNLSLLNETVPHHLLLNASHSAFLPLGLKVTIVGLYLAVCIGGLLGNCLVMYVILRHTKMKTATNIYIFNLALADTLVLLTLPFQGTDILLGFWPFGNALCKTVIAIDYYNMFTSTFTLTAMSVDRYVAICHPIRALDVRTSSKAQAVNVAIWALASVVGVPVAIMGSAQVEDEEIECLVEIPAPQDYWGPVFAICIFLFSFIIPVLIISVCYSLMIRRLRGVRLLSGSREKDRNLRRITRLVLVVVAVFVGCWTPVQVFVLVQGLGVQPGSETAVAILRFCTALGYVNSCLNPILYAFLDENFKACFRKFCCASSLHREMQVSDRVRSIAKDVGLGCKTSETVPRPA", "assay": "NOP receptor binding, clone", "conditions": "rat clone (CHO cells); Mean±S.E.M."}, "Serotonin 5-HT6": {"molecular_target": "Serotonin 5-HT6 (Homo sapiens, UniProt P50406)", "sequence (P50406 whole entry)": "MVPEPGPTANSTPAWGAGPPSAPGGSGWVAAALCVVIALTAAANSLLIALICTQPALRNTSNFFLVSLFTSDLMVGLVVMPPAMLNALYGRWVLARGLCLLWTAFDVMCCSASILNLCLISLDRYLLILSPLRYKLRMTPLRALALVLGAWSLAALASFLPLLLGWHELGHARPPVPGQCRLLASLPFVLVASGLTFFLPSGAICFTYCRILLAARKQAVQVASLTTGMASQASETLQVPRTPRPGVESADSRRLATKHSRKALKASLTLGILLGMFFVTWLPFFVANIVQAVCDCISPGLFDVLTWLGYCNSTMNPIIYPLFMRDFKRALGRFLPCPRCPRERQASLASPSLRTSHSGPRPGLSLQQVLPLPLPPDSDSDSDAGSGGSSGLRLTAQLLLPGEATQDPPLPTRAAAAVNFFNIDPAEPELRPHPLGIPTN", "assay": "MDS Pharma Services counterscreen binding", "conditions": "semi-quantitative"}, "Dopamine D3": {"molecular_target": "Dopamine D3 (Homo sapiens, UniProt P35462)", "sequence (P35462 whole entry)": "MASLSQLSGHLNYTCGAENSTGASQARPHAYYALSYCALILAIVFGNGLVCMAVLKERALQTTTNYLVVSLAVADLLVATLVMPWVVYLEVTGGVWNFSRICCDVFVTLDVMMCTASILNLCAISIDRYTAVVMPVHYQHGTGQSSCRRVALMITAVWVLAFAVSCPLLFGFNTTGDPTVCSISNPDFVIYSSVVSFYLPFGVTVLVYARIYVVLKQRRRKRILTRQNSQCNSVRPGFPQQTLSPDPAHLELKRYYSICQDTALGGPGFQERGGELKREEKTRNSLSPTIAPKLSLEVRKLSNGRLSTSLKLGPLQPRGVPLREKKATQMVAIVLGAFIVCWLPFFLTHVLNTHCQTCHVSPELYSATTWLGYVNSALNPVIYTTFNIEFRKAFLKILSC", "assay": "MDS Pharma Services counterscreen binding", "conditions": "semi-quantitative"}, "Sodium channel, site 2": {"molecular_target": "Sodium channel, site 2", "assay": "MDS Pharma Services counterscreen binding", "conditions": "site 2 (rat), semi-quantitative"}, "Sigma (non-selective)": {"molecular_target": "Sigma (non-selective)", "assay": "MDS Pharma Services counterscreen binding", "conditions": "Sigma (non-selective, guinea pig); semi-quantitative"}, "Dopamine transporter": {"molecular_target": "Dopamine transporter (Homo sapiens, UniProt Q01959)", "sequence (Q01959 whole entry)": "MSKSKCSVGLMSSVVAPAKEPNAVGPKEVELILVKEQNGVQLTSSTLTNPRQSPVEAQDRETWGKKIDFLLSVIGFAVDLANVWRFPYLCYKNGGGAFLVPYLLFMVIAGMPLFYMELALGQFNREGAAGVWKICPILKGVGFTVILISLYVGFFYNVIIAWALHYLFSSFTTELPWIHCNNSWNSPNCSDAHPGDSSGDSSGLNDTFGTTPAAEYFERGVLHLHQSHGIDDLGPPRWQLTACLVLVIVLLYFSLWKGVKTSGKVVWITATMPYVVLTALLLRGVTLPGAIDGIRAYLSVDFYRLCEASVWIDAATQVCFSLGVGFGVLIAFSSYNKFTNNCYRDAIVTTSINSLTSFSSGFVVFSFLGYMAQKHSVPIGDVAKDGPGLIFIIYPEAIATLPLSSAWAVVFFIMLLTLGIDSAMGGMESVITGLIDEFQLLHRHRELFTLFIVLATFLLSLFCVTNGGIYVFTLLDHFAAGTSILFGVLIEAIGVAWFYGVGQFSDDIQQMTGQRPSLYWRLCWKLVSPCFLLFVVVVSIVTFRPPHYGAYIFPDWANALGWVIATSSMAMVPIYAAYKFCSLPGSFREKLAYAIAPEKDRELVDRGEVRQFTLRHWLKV", "assay": "MDS Pharma Services counterscreen binding", "conditions": "semi-quantitative"}, "[3]": {"test_system": "MDS Pharma enzyme and receptor binding assays (benzodiazepine, bradykinin, dopamine D1/D2/D4, GABA, glutamate, glycine, serotonin, tachykinin)", "assay": "MDS Pharma Services counterscreen panel, remaining assays", "conditions": "tested at 10 μM; active = greater than 50% inhibition"}, "[4]": {"test_system": "mechanically-induced cough", "assay": "Feline mechanically-induced cough", "type": "in vivo, cat", "conditions": "intra-vertebral artery, 0.001–0.3 mg/kg cumulative"}, "[5]": {"test_system": "conditioned place preference", "assay": "Rat conditioned place preference", "type": "in vivo", "conditions": "for conditioned place preference (time spent in drug paired side): SCH 486757 10 mg/kg p.o., amphetamine 3 mg/kg, morphine 10 mg/kg, 4 pairings"}, "[6]": {"assay": "Pharmacokinetic profile in the guinea pig", "type": "in vivo"}, "[7]": {"assay": "Pharmacokinetic profile in the rat", "type": "in vivo", "conditions": "10 mg/kg p.o."}, "[8]": {"assay": "Pharmacokinetic profile in the dog", "type": "in vivo"}, "[9]": {"assay": "Safety pharmacology rat studies", "type": "in vivo", "conditions": "oral doses up to 30 mg/kg, data not shown"}, "[10]": {"assay": "General tolerability / overt behavioral effects", "type": "in vivo", "conditions": "guinea pig, rat, cat and dogs"}, "capsaicin-induced cough": {"test_system": "capsaicin-induced cough", "conditions": "for doses producing significant CNS effects (lethargy, ataxia): guinea pig, in vivo, po"}}, "note": "Values joined by “and” are separate entries in the source; they are usually repeats but may differ in a detail not shown here. Equal entries are not always repeated. “Also recorded” adds a separate entry of the source."}
{"smiles": "OC1(c2ncccn2)CC2CCC(C1)N2C(c1ccccc1Cl)c1ccccc1Cl", "note": "(centres unmarked) [SCH 486757, 8-[Bis(2-Chlorophenyl)Methyl]-3-(2-Pyrimidinyl)-8-Azabicyclo-[3.2.1.]Octan-3-Ol]", "values": [{"measurement": "Ki", "setting": "[1]", "result": "590 ± 40", "unit": "nM"}, {"measurement": "Ki", "setting": "[2]", "result": "14700 ± 2560", "unit": "nM"}, {"measurement": "Ki", "setting": "Guinea pig NOP receptor", "result": "5.4 ± 0.32", "unit": "nM"}, {"measurement": "Ki", "setting": "Cat NOP receptor", "result": "6.7 ± 0.67", "unit": "nM"}, {"measurement": "Ki", "setting": "Dog NOP receptor", "result": "5.3 ± 0.71", "unit": "nM"}, {"measurement": "Ki", "setting": "Rat NOP receptor", "result": "6.6 ± 0.15", "unit": "nM"}, {"measurement": "Ki", "setting": "Serotonin 5-HT6", "result": 2350, "unit": "nM"}, {"measurement": "Ki", "setting": "Dopamine D3", "result": 3660, "unit": "nM"}, {"measurement": "Ki", "setting": "Sodium channel, site 2", "result": 5580, "unit": "nM"}, {"measurement": "Ki", "setting": "Sigma (non-selective)", "result": 7120, "unit": "nM"}, {"measurement": "Ki", "setting": "Dopamine transporter", "result": 8430, "unit": "nM"}, {"measurement": "activity in remaining MDS Pharma enzyme and receptor binding assays", "setting": "[3]", "result": "did not show significant affinity"}, {"measurement": "effect on inspiratory electromyogram amplitude", "setting": "[4]", "result": "did not significantly affect; also recorded: no significant effect"}, {"measurement": "number of entries into the drug paired side", "setting": "[5]; 10 mg/kg p.o.", "result": "did not alter"}, {"measurement": "conditioned place preference (time spent in drug paired side)", "setting": "[5]", "result": "without effect; also recorded: did not produce any conditioned place preference; also recorded: no effect"}, {"measurement": "AUC", "setting": "[6]; 0.03 mg/kg p.o.", "result": 0.027, "unit": "µM·h"}, {"measurement": "Tmax", "setting": "[6]; 0.03 mg/kg p.o.", "result": 3, "unit": "h"}, {"measurement": "plasma concentration during the 2- to 4-hour time period", "setting": "[6]; 0.03 mg/kg p.o.", "result": "about 2 nM"}, {"measurement": "Cmax", "setting": "[6]; 0.03 mg/kg p.o., 0.03 mg/kg", "result": "3.1 nM and 3 nM"}, {"measurement": "AUC", "setting": "[6]; 0.30 mg/kg p.o.", "result": 0.242, "unit": "µM·h"}, {"measurement": "Cmax", "setting": "[6]; 0.30 mg/kg p.o.", "result": 31, "unit": "nM"}, {"measurement": "Tmax", "setting": "[6]; 0.30 mg/kg p.o.", "result": 3, "unit": "h"}, {"measurement": "AUC", "setting": "[7]", "result": 1.29, "unit": "µM·h"}, {"measurement": "Cmax", "setting": "[7]", "result": 127, "unit": "nM"}, {"measurement": "Tmax", "setting": "[7]", "result": 3.3, "unit": "h"}, {"measurement": "half-life (t1/2)", "setting": "[8]; 3 mg/kg intravenous", "result": 7.9, "unit": "h"}, {"measurement": "mean AUC", "setting": "[8]; 3 mg/kg intravenous", "result": 5.68, "unit": "µM·h"}, {"measurement": "AUC", "setting": "[8]; 3 mg/kg p.o.", "result": 1.84, "unit": "µM·h"}, {"measurement": "Cmax", "setting": "[8]; 3 mg/kg p.o.", "result": 540, "unit": "nM"}, {"measurement": "Tmax", "setting": "[8]; 3 mg/kg p.o.", "result": 0.8, "unit": "h"}, {"measurement": "percent bioavailability (F%)", "setting": "[8]; 3 mg/kg p.o. vs intravenous", "result": 32, "unit": "%"}, {"measurement": "effect on blood gases or respiratory function parameters", "setting": "[9]", "result": "did not affect"}, {"measurement": "tolerability, overt behavioral effects", "setting": "[10]", "result": "well tolerated"}, {"measurement": "antitussive activity at 2 and 6 h", "setting": "capsaicin-induced cough; 0.1 mg/kg, p.o., 2 and 6 h", "result": "Significant antitussive activity"}, {"measurement": "inhibition of capsaicin-evoked coughing, chronic dosing", "setting": "capsaicin-induced cough; 1 mg/kg p.o., 5-day BID regimen, 2 h post last dose", "result": "40 ± 11", "unit": "%"}, {"measurement": "inhibition of capsaicin-evoked coughing, acute dosing", "setting": "capsaicin-induced cough; 1 mg/kg p.o., single dose, 2 h post treatment", "result": "46 ±9", "unit": "%"}, {"measurement": "inhibition of cough at 24 h", "setting": "capsaicin-induced cough; 1 mg/kg, p.o., 24 h, data not shown", "result": "did not inhibited cough"}, {"measurement": "tolerance to antitussive activity", "setting": "capsaicin-induced cough; 5-day BID dosing regimen, 1 mg/kg p.o.", "result": "does not produce tolerance"}, {"measurement": "antitussive effect in presence of naltrexone", "setting": "capsaicin-induced cough; SCH 486757 3 mg/kg p.o., naltrexone 10 mg/kg p.o., 2 h", "result": "not by naltrexone"}, {"measurement": "ED50 against capsaicin-induced cough", "setting": "capsaicin-induced cough; p.o., 4 h post administration", "result": 0.04, "unit": "mg/kg"}, {"measurement": "maximum efficacy, cough suppression", "setting": "capsaicin-induced cough; p.o., 4 h post administration", "result": "66 ± 6", "unit": "%"}]}
{"smiles": "CC(N)Cc1ccccc1", "note": "(centres unmarked) [amphetamine, reference compound]", "values": [{"measurement": "conditioned place preference (time spent in drug paired side)", "setting": "[5]", "result": "induced a marked conditioned place preference; also recorded: increased the time spent on the drug paired side"}]}
{"smiles": "COc1ccc2c3c1O[C@H]1[C@@H](O)C=C[C@H]4[C@@H](C2)N(C)CC[C@@]341", "note": "[codeine, reference compound]", "values": [{"measurement": "doses producing significant CNS effects (lethargy, ataxia)", "setting": "capsaicin-induced cough", "result": "higher than 60 mg/kg"}, {"measurement": "antitussive efficacy compared between SCH 486757 and standards", "setting": "capsaicin-induced cough; p.o., 4 h", "result": "comparable antitussive efficacies"}]}
{"smiles": "COc1ccc2c(c1)[C@]13CCCC[C@@H]1[C@H](C2)N(C)CC3", "note": "[dextromethorphan, reference compound]", "values": [{"measurement": "doses producing significant CNS effects (lethargy, ataxia)", "setting": "capsaicin-induced cough", "result": "> 100", "unit": "mg"}]}
{"smiles": "CN1CC[C@]23c4c5ccc(O)c4O[C@H]2[C@@H](O)C=C[C@H]3[C@H]1C5", "note": "[morphine, reference compound]", "values": [{"measurement": "conditioned place preference (time spent in drug paired side)", "setting": "[5]", "result": "induced a marked conditioned place preference; also recorded: increased the time spent on the drug paired side"}]}
{"smiles": "O=C1CC[C@@]2(O)[C@H]3Cc4ccc(O)c5c4[C@@]2(CCN3CC2CC2)[C@H]1O5", "note": "[naltrexone, reference compound]", "values": [{"measurement": "action on capsaicin-induced cough responses, given alone", "setting": "capsaicin-induced cough; J113397 12 mg/kg i.p., naltrexone 10 mg/kg p.o.", "result": "Neither naltrexone nor J113397 given alone had any actions"}]}
